The values below come from the supplement of paper PMC10307832.

Assay in all cases: relative viability (nuclei count vs DMSO), 5 days (fraction); higher = more cells survive
Compound in the experiment “Venetoclax + Phenformin”: CC1(C)CCC(CN2CCN(c3ccc(C(=O)NS(=O)(=O)c4ccc(NCC5CCOCC5)c([N+](=O)[O-])c4)c(Oc4cnc5[nH]ccc5c4)c3)CC2)=C(c2ccc(Cl)cc2)C1 [Venetoclax] + N=C(N)NC(=N)NCCc1ccccc1 [Phenformin] (partner 250 µM)
In a few lines: (§1)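 Relative viability divides the nuclei count in treated wells by that in vehicle wells. Lung cancer cell lines were seeded in 1536-well plates, dosed by pin tool the next day, and fixed and stained after 5 days in one step with final 0.05% Triton X-100, 1% formaldehyde and 1 ug/ml Hoechst. Dosing was a single drug or a fixed anchor-drug dose plus five library-drug doses (not always all listed) in √10 steps, and values are medians of duplicate plates imaged at 4×.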

Compound in the experiment “Selumetinib + Linsitinib”: Cn1cnc2c(F)c(Nc3ccc(Br)cc3Cl)c(C(=O)NOCCO)cc21 [Selumetinib] + C[C@]1(O)C[C@@H](c2nc(-c3ccc4ccc(-c5ccccc5)nc4c3)c3c(N)nccn32)C1 [Linsitinib] (partner 1 µM)
In a few lines:
as §1

Compound in the experiment “Venetoclax + Luminespib”: CC1(C)CCC(CN2CCN(c3ccc(C(=O)NS(=O)(=O)c4ccc(NCC5CCOCC5)c([N+](=O)[O-])c4)c(Oc4cnc5[nH]ccc5c4)c3)CC2)=C(c2ccc(Cl)cc2)C1 [Venetoclax] + CCNC(=O)c1noc(-c2cc(C(C)C)c(O)cc2O)c1-c1ccc(CN2CCOCC2)cc1 [Luminespib] (partner 0.01 µM)
In a few lines:
as §1

Compound in the experiment “Venetoclax + Decitabine”: CC1(C)CCC(CN2CCN(c3ccc(C(=O)NS(=O)(=O)c4ccc(NCC5CCOCC5)c([N+](=O)[O-])c4)c(Oc4cnc5[nH]ccc5c4)c3)CC2)=C(c2ccc(Cl)cc2)C1 [Venetoclax] + Nc1ncn([C@H]2C[C@H](O)[C@@H](CO)O2)c(=O)n1 [Decitabine] (partner 2 µM)
Put shortly: as §1

For the cell line SK-LU-1, the relative viability came out at 0.537 with Venetoclax + Phenformin (first compound 0.01 µM); 0.613 in the experiment with Venetoclax + Phenformin (first compound 0.03162 µM); 0.526 in the experiment with Venetoclax + Phenformin (first compound 0.1 µM); 0.531 in the experiment with Venetoclax + Phenformin (first compound 0.3162 µM); 0.505 with Venetoclax + Phenformin (first compound 1 µM); 0.897 with Selumetinib + Linsitinib (first compound 0.02 µM). The relative viability with Selumetinib + Linsitinib (first compound 0.06325 µM) is 1.06; in the experiment with Selumetinib + Linsitinib (first compound 0.2 µM), 0.903; with Selumetinib + Linsitinib (first compound 0.6325 µM), 0.625; with Venetoclax + Luminespib (first compound 0.01 µM) it was 0.188; with Venetoclax + Luminespib (first compound 0.03162 µM) it was 0.21; with Venetoclax + Luminespib (first compound 0.1 µM), 0.197. The relative viability in the experiment with Venetoclax + Luminespib (first compound 0.3162 µM) is 0.198; in the experiment with Venetoclax + Luminespib (first compound 1 µM), 0.197; with Venetoclax + Decitabine (first compound 0.01 µM), 0.568; with Venetoclax + Decitabine (first compound 0.03162 µM), 0.738; with Venetoclax + Decitabine (first compound 0.1 µM), 0.639; with Venetoclax + Decitabine (first compound 0.3162 µM), 0.609. In addition, in the experiment with Venetoclax + Decitabine (first compound 1 µM), the relative viability is 0.549.
In the case of EMC-BAC-2, the relative viability in the experiment with Venetoclax + Phenformin (first compound 0.01 µM) is 0.483; with Venetoclax + Phenformin (first compound 0.03162 µM), 0.524; with Venetoclax + Phenformin (first compound 0.1 µM), 0.519; in the experiment with Venetoclax + Phenformin (first compound 0.3162 µM), 0.512; with Venetoclax + Phenformin (first compound 1 µM), 0.475; with Selumetinib + Linsitinib (first compound 0.02 µM) it was 0.732. Moreover, the relative viability in the experiment with Selumetinib + Linsitinib (first compound 0.06325 µM) came to 0.668; with Selumetinib + Linsitinib (first compound 0.2 µM), 0.707; in the experiment with Selumetinib + Linsitinib (first compound 0.6325 µM), 0.743; in the experiment with Venetoclax + Luminespib (first compound 0.01 µM), 1.09; in the experiment with Venetoclax + Luminespib (first compound 0.03162 µM) it was 1.16; with Venetoclax + Luminespib (first compound 0.1 µM) it was 1.23. The relative viability with Venetoclax + Luminespib (first compound 0.3162 µM) came to 1.21; in the experiment with Venetoclax + Luminespib (first compound 1 µM) it was 1.1; in the experiment with Venetoclax + Decitabine (first compound 0.01 µM) it was 0.983; with Venetoclax + Decitabine (first compound 0.03162 µM), 0.989; in the experiment with Venetoclax + Decitabine (first compound 0.1 µM), 0.981; with Venetoclax + Decitabine (first compound 0.3162 µM), 1.02. In the experiment with Venetoclax + Decitabine (first compound 1 µM), the relative viability was 0.956.
With LK-2, the relative viability in the experiment with Venetoclax + Phenformin (first compound 0.01 µM) is 0.479; with Venetoclax + Phenformin (first compound 0.03162 µM), 0.605; with Venetoclax + Phenformin (first compound 0.1 µM) it was 0.491; with Venetoclax + Phenformin (first compound 0.3162 µM) it was 0.617; with Venetoclax + Phenformin (first compound 1 µM), 0.357; in the experiment with Selumetinib + Linsitinib (first compound 0.02 µM), 0.466. In addition, the relative viability with Selumetinib + Linsitinib (first compound 0.06325 µM) is 0.551; with Selumetinib + Linsitinib (first compound 0.2 µM), 0.587; with Selumetinib + Linsitinib (first compound 0.6325 µM), 0.312; in the experiment with Venetoclax + Luminespib (first compound 0.01 µM), 0.186; in the experiment with Venetoclax + Luminespib (first compound 0.03162 µM), 0.204; with Venetoclax + Luminespib (first compound 0.1 µM), 0.185. The relative viability was found to be 0.157 with Venetoclax + Luminespib (first compound 0.3162 µM); 0.182 with Venetoclax + Luminespib (first compound 1 µM); 0.204 with Venetoclax + Decitabine (first compound 0.01 µM); 0.359 in the experiment with Venetoclax + Decitabine (first compound 0.03162 µM); 0.305 in the experiment with Venetoclax + Decitabine (first compound 0.1 µM); 0.231 in the experiment with Venetoclax + Decitabine (first compound 0.3162 µM). In addition, the relative viability with Venetoclax + Decitabine (first compound 1 µM) stood at 0.294.
As to NCI-H23, the relative viability in the experiment with Venetoclax + Phenformin (first compound 0.01 µM) was 0.762; with Venetoclax + Phenformin (first compound 0.03162 µM) it was 0.751; in the experiment with Venetoclax + Phenformin (first compound 0.1 µM) it was 0.815; with Venetoclax + Phenformin (first compound 0.3162 µM) it was 0.8; in the experiment with Venetoclax + Phenformin (first compound 1 µM), 0.719; with Selumetinib + Linsitinib (first compound 0.02 µM) it was 0.585. Moreover, the relative viability with Selumetinib + Linsitinib (first compound 0.06325 µM) is 0.53; with Selumetinib + Linsitinib (first compound 0.2 µM), 0.43; with Selumetinib + Linsitinib (first compound 0.6325 µM), 0.369; with Venetoclax + Luminespib (first compound 0.01 µM), 0.222; with Venetoclax + Luminespib (first compound 0.03162 µM) it was 0.226; in the experiment with Venetoclax + Luminespib (first compound 0.1 µM), 0.215. In addition, the relative viability with Venetoclax + Luminespib (first compound 0.3162 µM) amounted to 0.228; with Venetoclax + Luminespib (first compound 1 µM), 0.22; in the experiment with Venetoclax + Decitabine (first compound 0.01 µM), 0.322; in the experiment with Venetoclax + Decitabine (first compound 0.03162 µM), 0.298; with Venetoclax + Decitabine (first compound 0.1 µM) it was 0.337; in the experiment with Venetoclax + Decitabine (first compound 0.3162 µM), 0.316. Besides, the relative viability with Venetoclax + Decitabine (first compound 1 µM) came out at 0.317.
For NCI-H1299, the relative viability was 0.996 with Selumetinib + Linsitinib (first compound 0.02 µM), 0.833 in the experiment with Selumetinib + Linsitinib (first compound 0.06325 µM), 0.88 with Selumetinib + Linsitinib (first compound 0.2 µM) and 0.677 with Selumetinib + Linsitinib (first compound 0.6325 µM).
HCC-366: the relative viability with Venetoclax + Phenformin (first compound 0.01 µM) was found to be 0.553; in the experiment with Venetoclax + Phenformin (first compound 0.03162 µM) it was 0.613; in the experiment with Venetoclax + Phenformin (first compound 0.1 µM), 0.578; with Venetoclax + Phenformin (first compound 0.3162 µM), 0.574; in the experiment with Venetoclax + Phenformin (first compound 1 µM) it was 0.545; in the experiment with Selumetinib + Linsitinib (first compound 0.02 µM), 0.525. The relative viability with Selumetinib + Linsitinib (first compound 0.06325 µM) was 0.406; in the experiment with Selumetinib + Linsitinib (first compound 0.2 µM) it was 0.249; with Selumetinib + Linsitinib (first compound 0.6325 µM), 0.229; with Venetoclax + Decitabine (first compound 0.01 µM), 0.354; with Venetoclax + Decitabine (first compound 0.03162 µM), 0.368; with Venetoclax + Decitabine (first compound 0.1 µM) it was 0.327. Further, the values for the relative viability with Venetoclax + Decitabine (first compound 0.3162 µM) and in the experiment with Venetoclax + Decitabine (first compound 1 µM) were 0.366 and 0.382, respectively.
For the cell line HCC-78, the relative viability was 0.782 in the experiment with Venetoclax + Phenformin (first compound 0.01 µM); 0.776 with Venetoclax + Phenformin (first compound 0.03162 µM); 0.699 in the experiment with Venetoclax + Phenformin (first compound 0.1 µM); 0.671 with Venetoclax + Phenformin (first compound 0.3162 µM); 0.606 with Venetoclax + Phenformin (first compound 1 µM); 0.446 with Selumetinib + Linsitinib (first compound 0.02 µM). Further, the relative viability in the experiment with Selumetinib + Linsitinib (first compound 0.06325 µM) was determined as 0.402; with Selumetinib + Linsitinib (first compound 0.2 µM), 0.419; with Selumetinib + Linsitinib (first compound 0.6325 µM), 0.378; with Venetoclax + Decitabine (first compound 0.01 µM) it was 0.689; with Venetoclax + Decitabine (first compound 0.03162 µM), 0.744; with Venetoclax + Decitabine (first compound 0.1 µM), 0.786. In addition, the results for the relative viability with Venetoclax + Decitabine (first compound 0.3162 µM) and with Venetoclax + Decitabine (first compound 1 µM) were 0.652 and 0.58, respectively.
As to NCI-H2228, the relative viability amounted to 0.366 with Venetoclax + Phenformin (first compound 0.01 µM); 0.322 with Venetoclax + Phenformin (first compound 0.03162 µM); 0.234 with Venetoclax + Phenformin (first compound 0.1 µM); 0.422 with Venetoclax + Phenformin (first compound 0.3162 µM); 0.408 with Venetoclax + Phenformin (first compound 1 µM); 0.605 with Selumetinib + Linsitinib (first compound 0.02 µM). Moreover, the relative viability with Selumetinib + Linsitinib (first compound 0.06325 µM) stood at 0.628; in the experiment with Selumetinib + Linsitinib (first compound 0.2 µM), 0.671; with Selumetinib + Linsitinib (first compound 0.6325 µM) it was 0.359; with Venetoclax + Luminespib (first compound 0.01 µM) it was 0.162; with Venetoclax + Luminespib (first compound 0.03162 µM) it was 0.158; with Venetoclax + Luminespib (first compound 0.1 µM), 0.15. Further, the relative viability came to 0.128 with Venetoclax + Luminespib (first compound 0.3162 µM) and 0.147 with Venetoclax + Luminespib (first compound 1 µM).
Turning to NCI-H1563, the relative viability came out at 0.728 with Venetoclax + Phenformin (first compound 0.01 µM); 0.649 in the experiment with Venetoclax + Phenformin (first compound 0.03162 µM); 0.662 with Venetoclax + Phenformin (first compound 0.1 µM); 0.701 with Venetoclax + Phenformin (first compound 0.3162 µM); 0.659 in the experiment with Venetoclax + Phenformin (first compound 1 µM); 1.15 in the experiment with Selumetinib + Linsitinib (first compound 0.02 µM). In addition, the relative viability in the experiment with Selumetinib + Linsitinib (first compound 0.06325 µM) came out at 1.2; with Selumetinib + Linsitinib (first compound 0.2 µM) it was 1.11; with Selumetinib + Linsitinib (first compound 0.6325 µM), 1.11; in the experiment with Venetoclax + Luminespib (first compound 0.01 µM) it was 0.548; in the experiment with Venetoclax + Luminespib (first compound 0.03162 µM), 0.546; in the experiment with Venetoclax + Luminespib (first compound 0.1 µM), 0.499. In addition, the figures for the relative viability with Venetoclax + Luminespib (first compound 0.3162 µM) and with Venetoclax + Luminespib (first compound 1 µM) were 0.447 and 0.577, respectively.
